18 molecules from PubChem BioAssay (NCI) can be followed below.

Some test systems named below: SNB-19 CNS; OVCAR-3 ovarian; CAKI-1 renal; ACHN renal; COLO 205 colon; UACC-62 melanoma; M14 melanoma; K-562 leukemia; CCRF-CEM leukemia; IGROV1 ovarian.
Test in all cases: inhibition of tumour cell growth, NCI panel, 48 h

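Five concentrations, 48 hours, 96-well plates. GI50 marks 50% less growth. TGI denotes the concentration required for complete inhibition of growth.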 Where a SMILES comes first, the peptide text is derived from it. [ ]: non-standard residue; d: D form. The star is where a group is joined. ξ: configuration not given here. ξF = NC(Cc1ccccc1)C(=O)O; Cbz = O=C(OCc1ccccc1)*; Aib = CC(C)(N)C(=O)O

On to `COc1cc(Nc2nnc3n2S(=O)(=O)c2cc(C)c(Cl)cc2S3)cc(OC)c1`, for which the TGI in the assay with SNB-19 CNS was 77.6 µM; in the assay on OVCAR-3 ovarian, 28.2 µM; with CAKI-1 renal, 79 µM; with ACHN renal, 16.7 µM; in the assay with COLO 205 colon, more than 100 µM; with UACC-62 melanoma it was 57.6 µM. Also, the TGI is more than 100 µM in the assay on M14 melanoma, more than 100 µM with K-562 leukemia, more than 100 µM with CCRF-CEM leukemia and 6.26 µM with IGROV1 ovarian.
As to `C(=N\OCCc1ccccc1)/c1cccnc1`, the TGI in the assay with SNB-19 CNS, with OVCAR-3 ovarian, with ACHN renal, in the assay on COLO 205 colon, with UACC-62 melanoma and in the assay with M14 melanoma was more than 100 µM in each case. In addition, the TGI with K-562 leukemia, in the assay with CCRF-CEM leukemia and in the assay with IGROV1 ovarian was more than 100 µM in each case.
For the molecule `COC(=O)C(C)(C)NC(=O)C(Cc1ccccc1)NC(=O)C(C)(C)NC(=O)OCc1ccccc1` (centres undefined) (Cbz-[Aib]-[ξF]-[Aib]-OMe), the TGI in the assay with SNB-19 CNS, in the assay with OVCAR-3 ovarian, in the assay on CAKI-1 renal, in the assay on ACHN renal, in the assay with COLO 205 colon and with UACC-62 melanoma was more than 100 µM in each case. The TGI in the assay on M14 melanoma, in the assay with K-562 leukemia, with CCRF-CEM leukemia and with IGROV1 ovarian was more than 100 µM in each case.
For `Cc1ccc(C(O)(c2ccc(C)cc2)c2ccccn2)cc1`, the TGI with SNB-19 CNS, in the assay on OVCAR-3 ovarian, with CAKI-1 renal, in the assay with ACHN renal, in the assay on COLO 205 colon and in the assay on UACC-62 melanoma was more than 100 µM in each case. The TGI in the assay with M14 melanoma, in the assay with K-562 leukemia, with CCRF-CEM leukemia and in the assay on IGROV1 ovarian was more than 100 µM in each case.
`CC(C)(C)c1cc(OCc2nnc3sc(=S)[nH]n23)c(Cl)cc1OCc1nnc2sc(=S)[nH]n12`: the TGI in the assay with SNB-19 CNS is more than 100 µM; in the assay with OVCAR-3 ovarian, 63.6 µM; in the assay with CAKI-1 renal, 80.5 µM; in the assay on ACHN renal it was 76.8 µM; with COLO 205 colon, more than 100 µM; with UACC-62 melanoma, 32.6 µM. For the same molecule, the TGI with M14 melanoma was 75.7 µM; in the assay on K-562 leukemia, more than 100 µM; in the assay on CCRF-CEM leukemia, 37.3 µM; in the assay on IGROV1 ovarian, 66.4 µM.
Turning to `COc1cc(-c2n/c(=C\c3c(O)[nH]c4cc(Cl)ccc34)cc3c2=Nc2ccccc2-3)cc(OC)c1OC`, the GI50 in the assay with SNB-19 CNS is 3.52 µM; with OVCAR-3 ovarian it was 2.13 µM; in the assay on CAKI-1 renal, 10.9 µM; in the assay on ACHN renal, 4.49 µM; with UACC-62 melanoma, 3.4 µM; in the assay on M14 melanoma it was 2410 nM. For the same molecule, the results for the GI50 in the assay on K-562 leukemia, in the assay on CCRF-CEM leukemia and in the assay with IGROV1 ovarian were 3.57 µM, 3.88 µM and 5.56 µM, respectively. For the same molecule, the TGI stood at 15.5 µM with SNB-19 CNS; 6.69 µM with OVCAR-3 ovarian; 60 µM with CAKI-1 renal; 22.2 µM in the assay on ACHN renal; 14.1 µM with UACC-62 melanoma; 5.66 µM in the assay with M14 melanoma. Moreover, the TGI in the assay on K-562 leukemia was 48.6 µM; in the assay on CCRF-CEM leukemia it was more than 100 µM; with IGROV1 ovarian, 51.1 µM.
Take `COC1=CC(=O)c2c(c(COP(=O)(N(C)CCBr)N(C)CCBr)cn2C)C1=O`: the TGI is 3.76 µM in the assay with SNB-19 CNS; 0.877 µM with OVCAR-3 ovarian; 0.377 µM in the assay on CAKI-1 renal; 0.0728 µM in the assay with ACHN renal; 0.209 µM with COLO 205 colon; 0.272 µM in the assay on UACC-62 melanoma. Also, the TGI is 0.259 µM with M14 melanoma, 1.78 µM in the assay with CCRF-CEM leukemia and 3.93 µM with IGROV1 ovarian.
`Nc1nc2ccc(OCC(O)CN3CCCCC3)cc2[n+]([O-])n1` (centres undefined): the TGI with SNB-19 CNS, in the assay with OVCAR-3 ovarian, in the assay on CAKI-1 renal, in the assay on ACHN renal, in the assay with COLO 205 colon and in the assay with M14 melanoma was more than 100 µM in each case. Further, the TGI in the assay with K-562 leukemia and with CCRF-CEM leukemia was more than 100 µM in each case.
Regarding `CCOc1ccc(N=NS(=O)(=O)O)cc1`, the TGI in the assay with SNB-19 CNS, with OVCAR-3 ovarian, in the assay with CAKI-1 renal, in the assay with ACHN renal, in the assay with COLO 205 colon and in the assay on UACC-62 melanoma was more than 100 µM throughout. Also, the TGI in the assay with M14 melanoma, with K-562 leukemia, in the assay on CCRF-CEM leukemia and with IGROV1 ovarian was more than 100 µM each time.
For the molecule `Nc1c(-c2ccccc2[N+](=O)[O-])nc2ccccn12`, the TGI with OVCAR-3 ovarian, with ACHN renal, in the assay with COLO 205 colon, with UACC-62 melanoma, with M14 melanoma and with K-562 leukemia was more than 100 µM in each case. Besides, the TGI in the assay on CCRF-CEM leukemia and in the assay on IGROV1 ovarian was more than 100 µM in each case.
Regarding `Clc1ccc(-c2ccc(-c3nnc(COc4ccc(OCc5nnc(-c6ccc(-c7ccc(Cl)cc7Cl)o6)o5)c(Cl)c4)o3)o2)c(Cl)c1`, the TGI with SNB-19 CNS, in the assay on OVCAR-3 ovarian, in the assay on CAKI-1 renal, in the assay with ACHN renal, in the assay on COLO 205 colon and in the assay on UACC-62 melanoma was more than 100 µM each time. Further, the TGI is more than 100 µM in the assay on M14 melanoma, more than 100 µM with K-562 leukemia, 67.1 µM in the assay on CCRF-CEM leukemia and more than 100 µM in the assay on IGROV1 ovarian.
As to `CCCCOCc1cc(CN2CCN(C)CC2)c(O)c2ncccc12`, the TGI was more than 100 µM in the assay with SNB-19 CNS; more than 100 µM in the assay with OVCAR-3 ovarian; more than 100 µM in the assay with CAKI-1 renal; 54.2 µM in the assay with ACHN renal; more than 100 µM in the assay with COLO 205 colon; 40.6 µM with UACC-62 melanoma. Also, the TGI in the assay with M14 melanoma was 90 µM; with K-562 leukemia, more than 100 µM; in the assay on CCRF-CEM leukemia, 30.2 µM; in the assay on IGROV1 ovarian, 97.3 µM.
In the case of `Cc1ccc(N2CCN(CCC(=O)O)CC2)cc1`, the TGI in the assay on SNB-19 CNS, in the assay with OVCAR-3 ovarian, in the assay on CAKI-1 renal, with ACHN renal, in the assay with COLO 205 colon and with UACC-62 melanoma was more than 100 µM throughout. In addition, the TGI with M14 melanoma, in the assay with K-562 leukemia, in the assay with CCRF-CEM leukemia and in the assay with IGROV1 ovarian was more than 100 µM in each case.
With `C[CH2][Ge]([CH2]C)([CH2]C)[O]C(=O)CCC(=O)[O][Ge]([CH2]C)([CH2]C)[CH2]C`, the GI50 with SNB-19 CNS was more than 100 µM; in the assay with OVCAR-3 ovarian, 66 µM; in the assay on CAKI-1 renal it was more than 100 µM; in the assay on ACHN renal, more than 100 µM; in the assay with COLO 205 colon it was more than 100 µM; in the assay on UACC-62 melanoma, more than 100 µM. Moreover, the GI50 with M14 melanoma was more than 100000 nM; in the assay on K-562 leukemia it was 29.6 µM; with CCRF-CEM leukemia it was 23.7 µM; with IGROV1 ovarian it was more than 100 µM. In addition, the TGI with SNB-19 CNS, in the assay with OVCAR-3 ovarian, with CAKI-1 renal, in the assay on ACHN renal, in the assay on COLO 205 colon and in the assay on UACC-62 melanoma was more than 100 µM throughout. The TGI in the assay with M14 melanoma, with K-562 leukemia, in the assay with CCRF-CEM leukemia and in the assay with IGROV1 ovarian was more than 100 µM in each case.
`CC(C)(CCCCC(C)(C)C1NC(=O)N1)C1NC(=O)N1`: the TGI in the assay on SNB-19 CNS, in the assay with CAKI-1 renal, with ACHN renal, in the assay with COLO 205 colon, with UACC-62 melanoma and in the assay with M14 melanoma was more than 10 µM throughout. Moreover, the TGI in the assay with K-562 leukemia, in the assay with CCRF-CEM leukemia and in the assay on IGROV1 ovarian was more than 10 µM throughout.
Take `CC(C)CC(NC(=O)C(Cc1ccccc1)NC(=O)C(Cc1c[nH]c2ccccc12)NC(=O)CNC(=O)C(N)Cc1ccc(O)cc1)C(=O)O` (centres undefined) (H-YGWFL-OH; configuration not given here): the TGI in the assay with SNB-19 CNS is more than 100 µM; in the assay with OVCAR-3 ovarian, 57 µM; with CAKI-1 renal, more than 100 µM; in the assay on ACHN renal it was more than 100 µM; in the assay on COLO 205 colon, 32.9 µM; in the assay with UACC-62 melanoma, more than 100 µM. Moreover, the TGI in the assay on M14 melanoma, in the assay on CCRF-CEM leukemia and with IGROV1 ovarian was more than 100 µM throughout.
For the molecule `CCOC(=O)CCC(NC(=O)OCc1ccccc1)C(=O)NC(CCC(=O)OCC)C(=O)NNC(=O)OC(C)(C)C` (centres undefined), the TGI with SNB-19 CNS, in the assay with OVCAR-3 ovarian, in the assay on CAKI-1 renal, with COLO 205 colon, with UACC-62 melanoma and in the assay with M14 melanoma was more than 100 µM in each case. Moreover, the TGI with K-562 leukemia, in the assay with CCRF-CEM leukemia and with IGROV1 ovarian was more than 100 µM throughout.
Turning to `COc1cc(S(=O)(=O)Nc2ccc(-c3csc(N4C(=O)C(Cl)C4c4ccccc4)n3)cc2)ccc1Cl` (centres undefined), the TGI was more than 100 µM in the assay with SNB-19 CNS; more than 100 µM in the assay with OVCAR-3 ovarian; more than 100 µM in the assay with CAKI-1 renal; more than 100 µM with ACHN renal; more than 100 µM with COLO 205 colon; 51.2 µM with UACC-62 melanoma. The TGI was 59.2 µM with M14 melanoma, more than 100 µM in the assay on K-562 leukemia, more than 100 µM in the assay with CCRF-CEM leukemia and 22.4 µM in the assay on IGROV1 ovarian.
